Some results are limits rather than exact numbers.

The assay has as its system Plasmodium falciparum. Briefly: In vitro anti-malarial activity against Plasmodium falciparum, IC50 assay / [3H]-Hypoxanthine incorporation assay. To be noted: Erythrocyte; Plasmodium falciparum strains in parasitized red blood cells, [3H]-hypoxanthine incorporation, 48 hours at 37°C. It counts as cell-based. How it is done:
The compounds of this invention may be tested in one of several biological assays to determine the concentration of compound which is required to have a given pharmacological effect. In vitro anti-malarial activity against Plasmodium falciparum. IC50 assay / [^3H]-Hypoxanthine assay
The culture medium comprised RPMI 1640 with 25mM HEPES, sodium bicarbonate and glutamine (GIBCO™ cat. ref.: 52400), supplemented with 10% of pooled human sera AB (Irvine Scientific, cat. ref.: 5009) and HT supplement (0.15 mM hypoxanthine and 24 µM thymidine), (GIBCO™ cat. ref.: 41065). Human sera were decomplemented 30 min. at 56°C, aliquoted and stored frozen at -20°C until use in this culture medium.
This culture medium ("complete medium") was usually prepared fresh just before use and pre-warmed to 37°C.
Red blood cells O+ stock suspensions were prepared from whole blood bags coming from incomplete blood donation, provided by the Spanish Red Cross (<25 days after sampling). This "whole blood" was aliquoted and stored at 4°C.
To prepare red blood cells for the assay, the whole blood was centrifuged and washed 3 times with RPMI without serum. The upper phase, containing white blood cells was removed. The washed red blood cells were kept as a 50 % suspension in complete medium. The prepared cells were stored at 4°C and were employed in the assay at any time up to 4 days after preparation.
Test compounds were dissolved at 2 mg/ml in 100% DMSO on the day of the assay. If necessary, complete dissolution was achieved by gentle heating (the mixture was heated at a temperature <37°C) and sonication (sonication bath).
For IC50 determinations, 10 serial 2-fold dilutions were prepared in complete medium in the presence of a constant amount of DMSO. Any obvious signs of insolubility of the stock solutions in 100% DMSO or precipitation when these solutions were diluted in assay media, were recorded.
Plasmodium falciparum strains were maintained in complete medium at an hematocrit of 5% in continuous culture using a method adapted from that published by Trager and Jensen(1) and Traeger(2).
The parasitemia was calculated by counting the percentage of parasitized erythrocytes by optical microscopy. Thin films of blood were made every day from each culture flask, fixed with methanol and stained for 10 min. in Giemsa (Merck, cat. ref.: 1.09204) at 10 % in buffered water pH 7.2. The glass slides were observed and counted with an optical microscope (Nikon, Eclipse E200) equipped with a 100 X immersion oil objective.
The culture was maintained at an hematocrit of 5%, with a daily change of medium and was diluted when parasitemia had reached about 5%.
[^3H] Hypoxanthine incorporation assay was conducted using a method adapted from Desjardins et al. (3). The assays were performed in 96 wells flat bottom microplates. • 1. Serial dilutions of the test compounds (50µl of a 5X solution / well) were deposited in duplicate. Compounds of the invention were tested in this assay. Chloroquine and Atovaquone were used as control compounds for each assay. • 2. […] [^3H]-Hypoxanthine (Amersham Biosciences, cat. ref.: TRK74) was added extemporaneously to the inoculum suspension at a concentration of 1 µCi/ml (equating to […]). 200 µl of the resulting suspension was distributed into each well (other than the control well H12 described below) leading to a final volume of 250 µl per well, at 2% of hematocrit and 0.5 % of parasitemia / well. • 4. […]
`Cc1[nH]c(CO)c(-c2ccc(-c3ccc(CN4CCC(c5ccc(OC(F)(F)F)cc5)CC4)cc3)cc2)c(=O)c1Cl.Cl` [Example 62, 3-chloro-6-(hydroxymethyl)-2-methyl-5-{4'-[(4-{4-[(trifluoromethyl)oxy]phenyl}-1-piperidinyl)methyl]-4-biphenylyl}-4(1H)-pyridinone hydrochloride]: the IC50 was less than 0.125 µg/mL.

For the compound `Cc1[nH]c(CO)c(Cl)c(=O)c1-c1ccc(-c2ccc(CN3CCC(c4ccc(OC(F)(F)F)cc4)CC3)cc2)cc1.Cl` [Example 63, 3-chloro-2-(hydroxymethyl)-6-methyl-5-{4'-[(4-{4-[(trifluoromethyl)oxy]phenyl}-1-piperidinyl)methyl]-4-biphenylyl}-4(1H)-pyridinone hydrochloride], the IC50 was less than 0.125 µg/mL.

The compound `Cc1[nH]c(C)c(-c2ccc(-c3ccc(CN4CCC(c5ccc(OC(F)(F)F)cc5)CC4)cc3)nc2)c(=O)c1Cl.Cl` [Example 64, 5-chloro-2,6-dimethyl-6'-{4-[(4-{4-[(trifluoromethyl)oxy]phenyl}-1-piperidinyl)methyl]phenyl}-3,3'-bipyridin-4(1H)-one hydrochloride] yielded an IC50 of less than 0.125 µg/mL.

The compound `Cc1[nH]c(C)c(-c2ccc(C(F)(F)CN3CCC(C(F)(F)F)CC3)nc2)c(=O)c1Cl` [Example 67, 5-chloro-6'-{1,1-difluoro-2-[4-(trifluoromethyl)-1-piperidinyl]ethyl}-2,6-dimethyl-3,3'-bipyridin-4(1H)-one] had an IC50 of less than 0.125 µg/mL.

For `Cc1[nH]c(C)c(-c2ccc(OCCN3CCC(C(F)(F)F)CC3)nc2)c(=O)c1Cl.Cl` [Example 68, 5-chloro-2,6-dimethyl-6'-({2-[4-(trifluoromethyl)-1-piperidinyl]ethyl}oxy)-3,3'-bipyridin-4(1H)-one hydrochloride], the IC50 was determined as 0.21 µg/mL.

For orientation: IC50 means the concentration needed to halve the response being measured. High values mean a need for much substance, low ones inhibition by little substance.
